Assay results reported in patent US6046219A, “Method for the treatment of conditions mediated by collagen formation together with cell proliferation by application of inhibitors of protein hydroxylation” (Cornell Research Foundation, Inc., priority 1997, dated 2000).
Entries after “also recorded” stand apart in the source; their conditions may differ.

Key:
[1] = target: T1, purified human prolyl 4-hydroxylase (Homo sapiens, UniProt P13674); experiment: Assay of purified human prolyl 4-hydroxylase (14CO2 release from 2-oxoglutarate, cell-free); assay type: biochemical; settings: for Prolyl 4-hydroxylase ID50 (purified): purified human enzyme, inhibitory dose that gives 50% reduction of the enzyme-mediated reaction, unit assumed
T1 construct: made in house; host or cells: Spodoptera frugiperda insect cells (baculovirus, co-expression of α- and β-subunits)
Protocol: The effect on the enzyme was determined in a cell-free system by measuring the oxidative decarboxylation of its cofactor 2-oxoglutarate via release of radiolabeled carbon dioxide in a standard reaction mixture also containing ascorbate, ferrous sulfate, and unhydroxylated peptide substrate.
(§1) The inhibitory action of the substances according to the invention, for example on collagen secretion or cell proliferation, can be tested in direct assays of the enzymes mediating the pivotal protein hydroxylations for these biological processes, such as prolyl 4-hydroxylase and deoxyhypusyl hydroxylase. This entails the enzymatic hydroxylation of the appropriate protein precursor, either by the cellular or the purified enzyme, in the presence or absence of compounds of Formulae (I) or (II), with concomitant determination of co-substrate utilization by these enzymes or subsequent isolation of the hydroxylated amino acid and its unhydroxylated precursor. In this manner, the inhibitory potency of any given compound can be measured in the cell-free system, in cell culture, or in tissue, and is expressed as the inhibitory dose that gives a 50% reduction of the enzyme-mediated reaction (ID50). Enzyme is tested in analogy to the method of A. Abbruzzese, H. M. Hanauske-Abel, et al., Biochem. Biophys. Acta, 1077, 159-166 (1991) and of K. Majamaa, H. M. Hanauske-Abel, et al., Eur. J. Biochem. 138, 239-245 (1984), which are hereby incorporated by reference. Table III lists the ID50 values of some of the compounds according to the invention, using purified human prolyl 4-hydroxylase and cellular human deoxyhypusyl hydroxylase as representative protein hydroxylases.
The inhibiting effect of hydroxypyridones on the collagen-hydroxylating enzyme was studied in a cell-free system.
Assay of purified human prolyl 4-hydroxylase
The native α2 β2 -tetrameric enzyme was purified to homogeneity by poly(L-proline) affinity chromatography and DEAE chromatography from the supernatant of Spodoptera frugiperda insect cells cotransfected with recombinant baculovirus transfer vectors for both the human α- and β-subunits. Enzyme activity was determined by trapping of ^14 CO2 released from 2-oxo[1-^14 C][glutarate] according to the procedure of Majamaa, et al., Eur. J. Biochem., 138:239-245 (1984), which is hereby incorporated by reference. Briefly, all incubations were run for 60 minutes at 37° C. in a final volume of 1.0 ml per test sample, containing 0.1 μg enzyme, 0.1 mg heat-denatured (Pro-Pro-Gly)10 ×9 H2 O as hydroxylatable substrate, 0.1 mM 2-oxo[1-^14 C][glutarate] adjusted to 60,000 dpm by mixing with the unlabeled 2-oxoglutarate as cosubstrate, and cofactors (1.6 mM ascorbate, 0.05 mM ferrous sulfate, 0.08 mM dithiothreitol, 2 mg bovine serum albumin, 5 μL catalase). Assays are performed with only one of the active compounds at any given time.

[2] = target: T2, cellular human deoxyhypusyl hydroxylase (Homo sapiens, UniProt Q9BU89); experiment: Cellular human deoxyhypusyl hydroxylase (DOHH assay, 3H-spermidine labeling); assay type: cell-based; settings: for Deoxyhypusyl hydroxylase ID50 (cellular): cellular human enzyme, inhibitory dose that gives 50% reduction of the enzyme-mediated reaction, unit assumed
T2 construct: endogenous in cells; host or cells: cultured human cells (smooth muscle cells, B-lymphocytes)
T2 sequence (Q9BU89 1-302): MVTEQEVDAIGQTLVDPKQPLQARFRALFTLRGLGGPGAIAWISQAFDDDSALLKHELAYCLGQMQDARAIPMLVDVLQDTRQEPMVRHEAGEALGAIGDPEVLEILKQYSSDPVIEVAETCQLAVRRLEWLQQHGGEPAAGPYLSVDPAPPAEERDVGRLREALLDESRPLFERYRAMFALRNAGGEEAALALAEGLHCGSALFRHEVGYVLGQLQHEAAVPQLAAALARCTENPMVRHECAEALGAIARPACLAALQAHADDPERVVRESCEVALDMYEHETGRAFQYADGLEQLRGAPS
Source text: as §1
The inhibiting effect of hydroxypyridones on the eIF-5A-hydroxylating enzyme was studied in cultured human cells (i.e. smooth muscle cells, B-lymphocytes).
The cellular conversion of the precursor deoxyhypusine to the hydroxylated hypusine in cells was examined, after preincubation with the inhibitor for 60 minutes, by labeling the human cells with ^3 H-spermidine (5 μCi/ml) in 25 cm^2 flasks (1×10^6 cells/flask) for 24 hours prior to cell lysis, precipitation with 10% TCA containing 1 mM each of putrescine, spermidine, and spermine, and hydrolysis in 6 N HCl at 110° C. for 16 hours. The hydrolysate was analyzed for labeled amino acids on an amino acid analyzer by published methods (Park et al., J. Biol. Chem., 257:7217-7222 (1982), which is hereby incorporated by reference). The retention of purified hypusine and deoxyhypusine was determined from standards.

[3] = target: T3, purified rat deoxyhypusyl hydroxylase (Rattus norvegicus, UniProt Q5PPJ4); experiment: DOHH assay, purified rat deoxyhypusyl hydroxylase, conversion of deoxyhypusine-containing eIF-5A precursor; assay type: biochemical; settings: unhydroxylated eIF-5A precursor, purified rat enzyme
T3 construct: probably testis; substrate unhydroxylated eIF-5A precursor
T3 sequence (Q5PPJ4 1-302): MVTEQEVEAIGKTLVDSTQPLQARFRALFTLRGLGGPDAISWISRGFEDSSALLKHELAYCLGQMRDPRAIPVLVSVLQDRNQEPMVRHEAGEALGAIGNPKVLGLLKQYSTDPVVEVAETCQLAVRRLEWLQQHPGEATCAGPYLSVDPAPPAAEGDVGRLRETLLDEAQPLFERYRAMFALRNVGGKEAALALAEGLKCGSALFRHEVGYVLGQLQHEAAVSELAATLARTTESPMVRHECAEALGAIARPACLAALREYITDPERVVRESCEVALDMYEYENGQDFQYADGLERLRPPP
Protocol: The inhibiting effect of a model peptidomimetic, suitable to serve as carrier for hydroxypyridone warheads, on the activity of the purified eIF-5A-hydroxylating enzyme was studied in a cell-free system.
Enzyme activity was purified and determined as described by Abbruzzese et al., J. Biol. Chem. 261:3085-9 (1986), which is hereby incorporated by reference. Briefly, the enzyme is offered labeled deoxyhypusine-containingeIF-5A precursor. Following standard incubation conditions, the conversion into hypusine residues is measured by chromatographic amino acid separation after protein hydrolysis.

[4] = test system: human SMC from fibroproliferative vascular lesions; experiment: Cell proliferation: DNA synthesis (3H-thymidine) in SMC; assay type: cell-based
Protocol: The effect of the structural hydroxypyridone analog kojic acid is shown for comparison. Serum-stimulated DNA synthesis in SMC was determined by a 4-hour pulse of ^3 H-thymidine given 20 hours after treatment with L-mimosine and kojic acid (filled symbols). Identically treated, but unlabeled cells cultured in parallel, at that time point were washed and returned to fresh culture media without inhibitor for an additional 20 hours prior to otherwise identical labeling with ^3 H-thymidine (open symbols). Data is expressed as ^3 H-thymidine incorporated per cell to compensate for the reduced cell number in the wake of inhibitor treatment.
Inhibition of DNA synthesis was examined by semiautomated methods. SMC were plated at 1×10^4 cells/well in 96-well microtiter plates at least 24 hours prior to the assay. Agents were introduced into normal serum-containing growth media for 20 hours before the cells were pulsed with ^3 H-thymidine (1 μCi/ml) for 4 hours. Cells were collected with a cell harvester and the DNA-incorporated label determined by scintillation counting (Betaplate; Wallac, Inc., Gaithersburg, Md.) (n=6 per point).

[5] = test system: human umbilical vein endothelial cells (HUVEC); experiment: Endothelial cell proliferation (tritiated thymidine incorporation); assay type: cell-based; settings: 24 hours
Protocol: Human umbilical vein endothelial cells ("HUVEC") were treated with the specified concentrations of deferiprone (X-axis) for 24 hours prior to evaluating tritiated thymidine (3H-Tdr) incorporation into DNA for 4 hours. The results are expressed per well and the bars at each point reflect the standard error of the mean (S.E.M., n=3). Decreasing 3H-Tdr incorporation would reflect reduced endothelial cells proliferation.
Endothelial cell proliferation was determined by essentially the same methods previously disclosed for the determination of smooth muscle proliferation. Human umbilical vein endothelial cells ("HUVEC") were isolated and subcultured in Medium 199 containing 15% fetal bovine serum ("FBS"), endothelial cell growth factor ("ECGF", 5 ng/ml), heparin (9 μg/ml), and antibiotics. The cells were plated in 96-well dishes at 1×10^4 cells per well and then allowed to attach for 24 hours. The medium was removed, and the cells were changed to media containing deferiprone at 50, 100, 200, or 500 μM. After 24 hours, tritiated thymidine was added to the wells and allowed to incorporate into the DNA for 4 hours prior to isolation of the nuclear DNA by standard methods. The results are expressed as the counts per minute ("cpm") of radioactivity per well, which is proportional to the rate of DNA synthesis during the 4 hour labelling period.

HUVEC = experiment: Endothelial cell tube formation on Matrigel; assay type: cell-based, human; settings: 24 hours
Protocol: HUVEC form tubes when plated on Matrigel and this is a commonly used as an in vitro model of capillary formation. In the FIG. 10A, it is shown that untreated HUVEC form capillary-like tubes (ARROW) when placed on Matrigel for 24 hours.
Endothelial cell tube formation was determined by plating HUVEC on a thick Matrigel (Becton Dickinson Labware) gel at a density of 5×10^4 cells per well of 24 well dish. Deferiprone was incubated with the cells for 30 minutes in solution prior to applying the cells to the Matrigel. The cells were added to the Matrigel-coated well, and, then 4 hours and 24 hours later, the cells were observed and photographed at a reproducible location.

[6] = orally active; established characteristics; cited from earlier work
certain human cells = settings: Ekblom et al.; cited from earlier work
prolyl hydroxylase = settings: U.S. Pat. No. 4,937,266; cited from earlier work
protein hydroxylases = experiment: Inhibition of protein hydroxylases; assay type: biochemical; settings: no data shown

T1 sequence (P13674 18-534): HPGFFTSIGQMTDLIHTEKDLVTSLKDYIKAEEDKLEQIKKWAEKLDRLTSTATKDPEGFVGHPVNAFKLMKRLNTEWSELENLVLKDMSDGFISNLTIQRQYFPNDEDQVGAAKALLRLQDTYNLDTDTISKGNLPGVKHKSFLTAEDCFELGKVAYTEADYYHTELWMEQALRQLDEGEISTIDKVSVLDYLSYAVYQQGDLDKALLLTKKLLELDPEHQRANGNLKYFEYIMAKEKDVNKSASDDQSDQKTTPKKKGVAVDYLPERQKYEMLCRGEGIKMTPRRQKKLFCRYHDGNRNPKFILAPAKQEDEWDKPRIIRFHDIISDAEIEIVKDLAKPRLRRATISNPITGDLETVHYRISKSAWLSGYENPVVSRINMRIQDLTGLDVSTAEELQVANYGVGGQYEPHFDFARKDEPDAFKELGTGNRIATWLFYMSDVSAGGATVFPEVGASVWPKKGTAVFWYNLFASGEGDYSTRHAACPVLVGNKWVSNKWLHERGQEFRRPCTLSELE
T1 sequence (P07237 18-508 partner): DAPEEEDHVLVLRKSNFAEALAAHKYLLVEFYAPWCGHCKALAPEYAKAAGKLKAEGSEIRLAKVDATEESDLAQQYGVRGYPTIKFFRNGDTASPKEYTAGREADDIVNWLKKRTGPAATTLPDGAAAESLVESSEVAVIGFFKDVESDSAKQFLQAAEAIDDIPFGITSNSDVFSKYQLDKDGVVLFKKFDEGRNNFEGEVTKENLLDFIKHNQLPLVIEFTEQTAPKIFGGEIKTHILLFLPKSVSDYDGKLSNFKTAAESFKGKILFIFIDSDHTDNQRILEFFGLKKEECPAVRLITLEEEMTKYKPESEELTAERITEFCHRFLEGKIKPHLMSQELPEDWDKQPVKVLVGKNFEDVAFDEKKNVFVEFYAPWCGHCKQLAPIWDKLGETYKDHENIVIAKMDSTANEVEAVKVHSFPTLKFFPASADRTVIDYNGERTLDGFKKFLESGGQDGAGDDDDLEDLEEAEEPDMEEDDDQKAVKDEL

CCc1c(O)c(=O)ccn1CC [HK-2]
Prolyl 4-hydroxylase ID50 (purified) [1]: 145 µM
Deoxyhypusyl hydroxylase ID50 (cellular) [2]: 50 µM

CCOCn1ccc(=O)c(O)c1C [HK-15]
Prolyl 4-hydroxylase ID50 (purified) [1]: 210 µM
Deoxyhypusyl hydroxylase ID50 (cellular) [2]: 60 µM

CCn1ccc(=O)c(O)c1C [HK-26]
Prolyl 4-hydroxylase ID50 (purified) [1]: 130 µM
Deoxyhypusyl hydroxylase ID50 (cellular) [2]: 58 µM

CCCn1ccc(=O)c(O)c1C [HK-27]
Prolyl 4-hydroxylase ID50 (purified) [1]: 155 µM
Deoxyhypusyl hydroxylase ID50 (cellular) [2]: 50 µM

NC(CO)C1CCC(=O)NC(CO)C(=O)N(C(Cc2ccccc2)C(=O)O)NC1=O (stereo not drawn) [Mimetic A]
deoxyhypusine-to-hypusine conversion / inhibition of purified deoxyhypusyl hydroxylase [3]: only weakly inhibitory
deoxyhypusine-to-hypusine conversion / inhibition of purified deoxyhypusyl hydroxylase ([3]; listed as mimetic A): suppressed

Cc1c(O)c(=O)ccn1C [HK-1, 1,2-dimethyl-3-hydroxypyrid-4-one]
inhibition of purified human prolyl 4-hydroxylase ([1]; cell-free system, FIG. 1): directly inhibit
Prolyl 4-hydroxylase ID50 (purified) [1]: 133 µM
inhibition of deoxyhypusyl hydroxylase ([2]; FIG. 3, assayed in vitro): directly inhibit
Deoxyhypusyl hydroxylase ID50 (cellular) [2]: 90 µM
non-specific or toxic effects ([4]; FIGS. 6, 7): did not result from non-specific or toxic effects
reversibility of suppressive effects (collagen secretion, onset of DNA synthesis) ([4]; upon removal of compound): reversible
inhibition of endothelial cell proliferation ([5]; FIG. 9, listed as deferiprone): blocks the proliferation; also recorded: inhibit endothelial cell proliferation
appearance / viability of treated HUVEC on Matrigel (HUVEC; FIG. 10B): remain healthy and viable in appearance
formation of capillary-like tubes on Matrigel (HUVEC; HUVEC, FIG. 10, listed as deferiprone): blocks the formation of tubular structures; also recorded: block the formation of capillary-like structures; also recorded: blocks capillary formation; also recorded: attach and spread, but do not form capillary-like tubes
extraction by the liver from the portal blood [6]: rapidly extracted by the liver from the portal blood

CCOC(=O)[C@@H](N)Cn1ccc(=O)c(O)c1 [--ethyl ester]
Prolyl 4-hydroxylase ID50 (purified) [1]: 145 µM

Cc1ncc(CO)c(C=NNC(=O)c2ccncc2)c1O [pyridoxal isonicotinyl hydrazone]
effect on proliferation of certain human cells (certain human cells): stimulates the proliferation

C=CCn1ccc(=O)c(O)c1C [HK-16]
Prolyl 4-hydroxylase ID50 (purified) [1]: 150 µM
Deoxyhypusyl hydroxylase ID50 (cellular) [2]: 50 µM

CC(C)(CO)[C@@H](O)C(=O)NCCC(=O)NCCSSCCNC(=O)CCNC(=O)[C@H](O)C(C)(C)CO [pantethine]
effect on increased prolyl hydroxylase activity in liver with hepatic fibrosis (prolyl hydroxylase): inhibited an increased prolyl hydroxylase activity

O=c1cc(CO)occ1O [kojic acid, reference compound]
inhibition of endothelial cell proliferation ([5]; FIG. 9): does not inhibit EC proliferation
inhibition of protein hydroxylases (protein hydroxylases): does not inhibit protein hydroxylases
